# Patent US7550599B2, “Water compatible sterically hindered alkoxyamines and hydroxy substituted alkoxyamines” (Ciba Specialty Chemicals Corporation, priority 2003, dated 2009)
# Key:
# [1] = Compatibility (clarity) in water borne urethane/acrylic copolymer coating, Example 101; format: physicochemical; settings: 2% by weight stabilizer; haziness = incompatibility
# Experimental: Formulation Reference: NeoResins, Inc., Formulation WB-2010, Technical Brochure, August, 2000.
# (§1) The following components are mixed together under good agitation:
# This solution is added to a 4 ounce clear glass jar containing 72.85 parts of NeoPac R-9699 under vigorous agitation and agitated for 10 minutes. Optionally, a defoamer, like Dehydran 1620 (Henkel), and a flash rusting agent, like Heiscore XAB (Cas Chem), are added. The lid is placed securely on the jar. The solidified coatings are visually observed for clarity after solidification. The development of opacity or haziness is indicative of an incompatibility between the hindered amine stabilizer and the formulated coating.
# [2] = Ink jet media light fastness, cyan, Example 31; settings: 100% print density, office fluorescent lighting
# Experimental: (§2) A resin-coated paper impregnated with inorganic adsorbent particles (Konica QP Photoglossy ink jet paper, Konica Corp.) is purchased. On the ink-receiving layer, a 0.8 wt % methanol solution of the instant compounds is applied in an amount to achieve 650-700 mg/m^2, unless otherwise stated. The paper is allowed to dry under ambient temperature and pressure for 24 hours. Separately, test patterns (cyan) are printed on the treated sheets using a Hewlett Packard DeskJet 970 Cxi printer at 100% print density. The obtained prints are left to dry at ambient temperature and pressure for 24 hours. Color densities and CIEL*a*b coordinates before and after exposure are measured using X-Rite 938 Spectrodensitometer. Exposures are carried out using normal office fluorescent lighting.
# [3] = Ink jet media light fastness, magenta, Example 32; settings: 100% print density, office fluorescent lighting
# Experimental: as §2, with “(magenta)” for “(cyan)”
# [4] = Ink jet media light fastness, yellow, Example 33; settings: 50% print density as printed, office fluorescent lighting, 650-700 mg/m2
# Experimental: as §2, with “stated otherwise.” for “otherwise stated.”, “(yellow)” for “(cyan)”, “50%” for “100%”
# [5] = Ink jet media light fastness, cyan, Example 34; settings: 50% print density, office fluorescent lighting
# Experimental: as §2, with “50%” for “100%”
# [6] = Ink jet media light fastness, yellow, Example 36; settings: 50% print density, office fluorescent lighting, 650-700 mg/m2
# Experimental: as §2, with “stated otherwise.” for “otherwise stated.”, “(yellow)” for “(cyan)”, “50%” for “100%”
# [7] = Solubility in 50% butyl carbitol / 50% water; format: physicochemical; settings: 50% butyl carbitol / 50% water by weight; stirred 30 minutes
# Experimental: (§3) The solubility of the instant compounds is evaluated in polar solvent systems. A solution of 50% butyl carbitol by weight and 50% water by weight is prepared. The instant compounds are added to this solution, stirred for 30 minutes, and sampled for analysis. Samples containing bis(1-octyloxy-2,2,6,6-tetramethylpiperidin-4-yl)sebacate and 4-hydroxy-1-(2-hydroxy-2-methylpropoxy)-2,2,6,6-tetramethylpiperidine are filtered to remove any undissolved residue and all samples are analyzed by high pressure liquid chromatography or gas chromatography.
# [8] = Solubility in 50% butyl cellusolve / 50% water; format: physicochemical; settings: 50% butyl cellusolve / 50% water by weight; stirred 30 minutes
# Experimental: as §3, with “cellusolve” for “carbitol”, “solution” for “solution,”
# [9] = Solubility in 25% butyl cellusolve / 75% water; format: physicochemical; settings: 25% butyl cellusolve / 75% water by weight; stirred 30 minutes
# Experimental: as §3, with “of 25%” for “of 50%”, “butyl cellusolve” for “butyl carbitol”, “and 75%” for “and 50%”, “containing bis[…]” for “containing bis(1-octyloxy-2,2,6,6-tetramethylpiperidin-4-yl)sebacate”
# Solubility in water = format: physicochemical; settings: stirred 30 minutes
# Experimental: as §3, with “systems.” for “systems. A solution of 50% butyl carbitol by weight and 50% water by weight is prepared.”, “water,” for “this solution,”
# [10] = Compatibility (clarity) in alkali-soluble water-borne acrylic copolymer coating, liquid in jar, Example 112; format: physicochemical; settings: 2% by weight stabilizer; haziness = incompatibility
# Experimental: Formulation Reference: NeoResins, Inc., Formulation WB-2065, Technical Brochure.
# as §1
# (§4) This solution is added to a 4 ounce clear glass jar containing 54.14 parts of NeoCryl BT-520 and 0.43 parts of Instant Stabilizer under vigorous agitation and is agitated for 10 minutes. The lid is placed securely on the jar. The liquid coating samples are visually observed for clarity over time. The development of opacity or haziness is indicative of an incompatibility between the hindered amine stabilizer and the formulated coating.
# [11] = Compatibility (clarity) in two component water-borne polyurethane coating, jar, Example 113; format: physicochemical; settings: 2% by weight stabilizer, with UVA; haziness = incompatibility
# Experimental: Formulation Reference: Bayer Corp., 2K Waterborne Clear, Notebook #820894-A, Technical Brochure.
# as §1
# as §4, with “15.56” for “54.14”, “Bayhydur XP-7165” for “NeoCryl BT-520”, “3.91” for “0.43”, “Exxate 700” for “Instant Stabilizer”, “solidified” for “liquid”
# [12] = Compatibility (clarity) of acrylic copolymer coating in Petri dish, Example 114; format: physicochemical; settings: coating of Example 112; oven 65 C thirty minutes; 2% by weight stabilizer
# Experimental: (§5) The hindered amine test stabilizers are incorporated into a coating system as described in Example 112. A 9.5-10 gram sample of each of the liquid coatings is added to a 100 mm×15 mm Petri dish and is placed in an oven at 65 C for thirty minutes. The samples are taken out of the oven, allowed to cool, and are visually observed for clarity over time. The development of opacity or haziness is indicative of an incompatibility between the hindered amine stabilizer and the formulated coating.
# [13] = Compatibility (clarity) of polyurethane coating in Petri dish, Example 115; format: physicochemical; settings: coating of Example 113; oven 75 C 120 minutes; 2% by weight stabilizer
# Experimental: as §5, with “113.” for “112.”, “75” for “65”, “120” for “thirty”
compound,measurement,setting,value
CCCCN(c1nc(NCCN2CCNCC2)nc(N(CCCC)C2CC(C)(C)N(OC3CCCCC3)C(C)(C)C2)n1)C1CC(C)(C)N(OC2CCCCC2)C(C)(C)C1.Cl [J],"Solidified coating in jar, clarity, 0 days",[1],clear
same,"Solidified coating in jar, clarity, 1 days",[1],clear
same,"Solidified coating in jar, clarity, 19 days",[1],clear
CC(C)(O)CON1C(C)(C)CC(NCCO)CC1(C)C.Cl [Example 22],DE for cyan after 4 weeks,[2]; 650-700 mg/m2,5.26
same,DE for cyan after 4 weeks,[2]; (2x) 1300 to 1400 mg/m2,4.62
same,DE for magenta after 4 weeks,[3]; 650-700 mg/m2,25.20
same,DE for magenta after 4 weeks,[3]; (2x) 1300 to 1400 mg/m2,21.96
same,DE for yellow after 4 weeks,[4],5.53
same,DE for cyan after 4 weeks,[5]; 650-700 mg/m2,5.98
same,DE for cyan after 4 weeks,[5]; (2x) 1300 to 1400 mg/m2,5.11
same,DE for yellow after 4 weeks,[6],3.15
"CCCCCCCCON1C(C)(C)CC(OC(=O)CCCCCCCCC(=O)OC2CC(C)(C)N(OCCCCCCCC)C(C)(C)C2)CC1(C)C [HALS A, bis(1-octyloxy-2,2,6,6-tetramethylpiperidin-4-yl) sebacate, reference compound]",Solubility (% by weight),[7],0.2 % by weight
same,Solubility (% by weight),[8],0.7 % by weight
same,Solubility (% by weight),[9],<0.1 % by weight
same,Solubility (% by weight),Solubility in water,<0.1 % by weight
"CC(C)(O)CON1C(C)(C)CC(O)CC1(C)C [HALS B, 4-hydroxy-1-(2-hydroxy-2-methylpropoxy)-2,2,6,6-tetramethylpiperidine, reference compound]",Solubility (% by weight),[7],13.4 % by weight
same,Solubility (% by weight),[8],15.5 % by weight
same,Solubility (% by weight),[9],13.6 % by weight
same,Solubility (% by weight),Solubility in water,1.4 % by weight
CCCCCCCCON1C(C)(C)CC(OC(=O)CCCCCCCCC(=O)OC2CC(C)(C)N(OCCCCCCCC)C(C)(C)C2)CC1(C)C [B],"Solidified coating in jar, clarity, 0 days",[1],hazy
same,"Solidified coating in jar, clarity, 1 days",[1],hazy
same,"Solidified coating in jar, clarity, 19 days",[1],hazy
same,"Liquid coating in jar, clarity, 0",[10],hazy
same,"Liquid coating in jar, clarity, 1 Month",[10],hazy
same,"Liquid coating in jar, clarity, Day 1",[10],hazy
same,"Solidified coating in jar, clarity, 0",[11],hazy
same,"Solidified coating in jar, clarity, 1 Month",[11],hazy
same,"Solidified coating in jar, clarity, Day 1",[11],hazy
same,"Solidified coating in Petri Dish, clarity, 0",[12],hazy
same,"Solidified coating in Petri Dish, clarity, 1 Month",[12],hazy
same,"Solidified coating in Petri Dish, clarity, Day 1",[12],hazy
same,"Solidified coating in Petri Dish, clarity, 0",[13],hazy
same,"Solidified coating in Petri Dish, clarity, 1 Month",[13],hazy
same,"Solidified coating in Petri Dish, clarity, Day 1",[13],hazy
CCCCN(c1nc(Nc2ccc(S(=O)(=O)O)cc2)nc(N(CCCC)C2CC(C)(C)N(OC3CCCCC3)C(C)(C)C2)n1)C1CC(C)(C)N(OC2CCCCC2)C(C)(C)C1.Cl [H],"Solidified coating in jar, clarity, 0 days",[1],clear
same,"Solidified coating in jar, clarity, 1 days",[1],clear
same,"Solidified coating in jar, clarity, 19 days",[1],clear
CC(=O)O.CCCCN(c1nc(NCCNCCNCCN)nc(N(CCCC)C2CC(C)(C)N(OC3CCCCC3)C(C)(C)C2)n1)C1CC(C)(C)N(OC2CCCCC2)C(C)(C)C1 [I],"Solidified coating in jar, clarity, 0 days",[1],clear
same,"Solidified coating in jar, clarity, 1 days",[1],clear
same,"Solidified coating in jar, clarity, 19 days",[1],clear
CC(C)(O)CON1C(C)(C)CC(=NO)CC1(C)C [Example 2],DE for cyan after 4 weeks,[2]; 650-700 mg/m2,4.69
same,DE for yellow after 4 weeks,[4],3.87
same,DE for cyan after 4 weeks,[5]; 650-700 mg/m2,5.53
same,DE for yellow after 4 weeks,[6],1.36
CC(C)(O)CON1C(C)(C)CC(NCC(=O)[O-])CC1(C)C.[K+] [Example 10],Solubility (% by weight),[7],≧20 % by weight
same,Solubility (% by weight),[8],≧20 % by weight
same,Solubility (% by weight),[9],≧18 % by weight
same,Solubility (% by weight),Solubility in water,≧8 % by weight
CCCCN(c1nc(Nc2ccc(Cl)c(C(=O)O)c2)nc(N(CCCC)C2CC(C)(C)N(OC3CCCCC3)C(C)(C)C2)n1)C1CC(C)(C)N(OC2CCCCC2)C(C)(C)C1 [G],"Solidified coating in jar, clarity, 0 days",[1],clear
same,"Solidified coating in jar, clarity, 1 days",[1],clear
same,"Solidified coating in jar, clarity, 19 days",[1],clear
CON1C(C)(C)CC(NCCOCCOCCNC2CC(C)(C)N(OC)C(C)(C)C2)CC1(C)C [L],"Solidified coating in jar, clarity, 0 days",[1],clear
same,"Solidified coating in jar, clarity, 1 days",[1],clear
same,"Solidified coating in jar, clarity, 19 days",[1],clear
CC(C)(O)CON1C(C)(C)CC(NCCO)CC1(C)C [Example 1],DE for cyan after 4 weeks,[2]; 650-700 mg/m2,4.21
same,DE for magenta after 4 weeks,[3]; 650-700 mg/m2,20.23
same,DE for cyan after 4 weeks,[5]; 650-700 mg/m2,5.29
